In US20240116985A1, “STAPLED PEPTIDES AND METHODS THEREOF” (priority 2020, published 2024):
In brackets after ≈: the same amount, converted by molar mass.

experiment: Solubility in PBS; type: physicochemical; conditions: not given
Description: After ultracentrifugation of the PBS solution, the supernatant was analyzed by HPLC and compared to an HPLC injection 50 μM peptide DMSO solution. Solubility was determined by: [(Area of PBS peak)/(Area of DMSO peak)]*50 uM.

| SMILES | Solubility [µM] |
| --- | --- |
| CC(=O)N1CCC[C@]12CC=CCCCC1(CCCC=CCCCOC(=O)N3CC[C@@](C(=O)N[C@@H](Cc4ccccc4)C(=O)N[C@@H](Cc4csc5ccccc45)C(=O)N[C@H](C(N)=O)[C@@H](C)O)(C3)NC(=O)[C@H](CC(C)C)NC(=O)[C@H](Cc3ccccc3)NC(=O)[C@H](C)NC(=O)[C@H](C)NC(=O)[C@H]([C@@H](C)O)NC(=O)[C@H](CC(N)=O)NC1=O)NC(=O)[C@H](CC(C)(C)C)NC(=O)[C@H](CC(=O)O)NC2=O (single isomer, unassigned) [I-1300, Ac-PL3-Asp-Npg-B5-Asn-Thr-Ala-Ala-Phe-Leu-PyrS2-Phe-BztA-Thr-NH2] | 10 (≈ 18.7 µg/mL) |
| CC(=O)N1CCC[C@]12CC=CCCCC1(CCCC=CCCCOC(=O)N3CC[C@@](C(=O)N[C@@H](Cc4ccccc4)C(=O)N[C@@H](Cc4cccc5ccccc45)C(=O)N[C@@H](CCC(N)=O)C(N)=O)(C3)NC(=O)[C@H](CC(C)C)NC(=O)[C@H](Cc3ccccc3)NC(=O)[C@H](C)NC(=O)[C@H](C)NC(=O)[C@H]([C@@H](C)O)NC(=O)[C@H](CC(=O)O)NC1=O)NC(=O)[C@H](CC(C)(C)C)NC(=O)[C@H](CC(N)=O)NC2=O (stereo partly drawn) [I-1290, Ac-PL3-Asn-Npg-B5-Asp-Thr-Ala-Ala-Phe-Leu-PyrS2-Phe-1NapA-Gln-NH2] | 10 (≈ 18.9 µg/mL) |
| CC(=O)N1CCC[C@]12CC=CCCCC1(CCCC=CCCCOC(=O)N3CC[C@@](C(=O)N[C@@H](Cc4ccsc4)C(=O)N[C@@H](Cc4csc5ccccc45)C(=O)N[C@@H](CCC(N)=O)C(N)=O)(C3)NC(=O)[C@H](CC(N)=O)NC(=O)[C@H](Cc3ccccc3)NC(=O)[C@H](C)NC(=O)[C@H](C)NC(=O)[C@H](CC(=O)O)NC(=O)[C@H](CCN)NC1=O)NC(=O)[C@H](CC(C)(C)C)NC(=O)[C@H](CC(=O)O)NC2=O (stereo partly drawn) [I-1216, Ac-PL3-Asp-Npg-B5-Dab-Asp-Ala-Ala-Phe-Asn-PyrS2-3Thi-BztA-Gln-NH2] | 10 (≈ 19 µg/mL) |
| CC(=O)N1CCC[C@]12CC=CCCCC1(CCCC=CCCCOC(=O)N3CC[C@@](C(=O)N[C@@H](Cc4ccccc4)C(=O)N[C@@H](Cc4ccc5ccccc5c4)C(=O)N[C@@H](CCC(N)=O)C(N)=O)(C3)NC(=O)[C@H](CC(C)C)NC(=O)[C@H](Cc3ccccc3)NC(=O)[C@H](C)NC(=O)[C@H](C)NC(=O)[C@H]([C@@H](C)O)NC(=O)[C@H](CC(=O)O)NC1=O)NC(=O)[C@H](CC(C)(C)C)NC(=O)[C@H](CC(N)=O)NC2=O (single isomer, unassigned) [I-1291, Ac-PL3-Asn-Npg-B5-Asp-Thr-Ala-Ala-Phe-Leu-PyrS2-Phe-2NapA-Gln-NH2] | 10 (≈ 18.9 µg/mL) |
| CC(=O)N1CCC[C@]12CC=CCCCC1(CCCC=CCCCOC(=O)N3CC[C@@](C(=O)N[C@@H](Cc4ccccc4)C(=O)N[C@@H](Cc4cccc5ccccc45)C(=O)N[C@@H](CCC(N)=O)C(N)=O)(C3)NC(=O)[C@H](CC(C)C)NC(=O)[C@H](Cc3ccccc3)NC(=O)[C@H](C)NC(=O)[C@H](C)NC(=O)[C@H]([C@@H](C)O)NC(=O)[C@H](CC(N)=O)NC1=O)NC(=O)[C@H](CC(C)(C)C)NC(=O)[C@H](CC(=O)O)NC2=O (stereo partly drawn) [I-1298, Ac-PL3-Asp-Npg-B5-Asn-Thr-Ala-Ala-Phe-Leu-PyrS2-Phe-1NapA-Gln-NH2] | 10 (≈ 18.9 µg/mL) |
| CC(=O)N1CCC[C@]12CC=CCCCC1(CCCC=CCCCOC(=O)N3CC[C@@](C(=O)N[C@@H](Cc4ccccc4)C(=O)N[C@@H](Cc4csc5ccccc45)C(=O)N[C@@H](CCC(N)=O)C(N)=O)(C3)NC(=O)[C@H](CC(C)C)NC(=O)[C@H](Cc3ccccc3)NC(=O)[C@H](C)NC(=O)[C@H](C)NC(=O)[C@H]([C@@H](C)O)NC(=O)[C@H](CC(=O)O)NC1=O)NC(=O)[C@H](C)NC(=O)[C@H](CC(N)=O)NC2=O (single isomer, unassigned) [I-1286, Ac-PL3-Asn-Ala-B5-Asp-Thr-Ala-Ala-Phe-Leu-PyrS2-Phe-BztA-Gln-NH2] | 10 (≈ 18.4 µg/mL) |

Now from value to compound:

| Solubility [µM] | SMILES |
| --- | --- |
| 10 (≈ 19.3 µg/mL) | CC(=O)N1CCC[C@]12CC=CCCCC1(CCCC=CCCCOC(=O)N3CC[C@@](C(=O)N[C@@H](Cc4ccccc4)C(=O)N[C@@H](Cc4ccc5ccccc5c4)C(=O)N[C@@H](CCC(N)=O)C(N)=O)(C3)NC(=O)[C@H](CC(C)C)NC(=O)[C@H](Cc3ccccc3)NC(=O)[C@H](C)NC(=O)[C@H](CCCCNC(C)C)NC(=O)[C@H]([C@@H](C)O)NC(=O)[C@H](CC(N)=O)NC1=O)NC(=O)[C@H](C)NC(=O)[C@H](CC(=O)O)NC2=O (stereo partly drawn) [I-1381, Ac-PL3-Asp-Ala-B5-Asn-Thr-iPrLys-Ala-Phe-Leu-PyrS2-Phe-2NapA-Gln-NH2] |
| 10 (≈ 19.7 µg/mL) | CC(=O)N1CCC[C@]12CC=CCCCC1(CCCC=CCCCOC(=O)N3CC[C@@](C(=O)N[C@@H](Cc4ccccc4)C(=O)N[C@@H](Cc4csc5ccccc45)C(=O)N[C@@H](CCC(N)=O)C(N)=O)(C3)NC(=O)[C@H](CC(C)C)NC(=O)[C@H](Cc3ccccc3)NC(=O)[C@H](C)NC(=O)[C@H](CCCCNC(C)C)NC(=O)[C@H](CCCCN)NC(=O)[C@H](CC(N)=O)NC1=O)NC(=O)[C@H](C)NC(=O)[C@H](CC(=O)O)NC2=O (stereo partly drawn) [I-1380, Ac-PL3-Asp-Ala-B5-Asn-Lys-iPrLys-Ala-Phe-Leu-PyrS2-Phe-BztA-Gln-NH2] |
| 10 (≈ 19.8 µg/mL) | CC(=O)N1CCC[C@]12CC=CCCCC1(CCCC=CCCCOC(=O)N3CC[C@@](C(=O)N[C@@H](Cc4ccccc4Cl)C(=O)N[C@@H](Cc4csc5ccccc45)C(=O)N[C@@H](CO)C(N)=O)(C3)NC(=O)[C@H](CC(C)C)NC(=O)[C@H](Cc3ccccc3)NC(=O)[C@H](C)NC(=O)[C@H](C)NC(=O)[C@H](Cc3cccc(C(=O)O)c3)NC(=O)[C@H](CC(=O)O)NC1=O)NC(=O)[C@H](CC(C)(C)C)NC(=O)[C@H](CC(=O)O)NC2=O (stereo partly drawn) [I-1333, PL3-Asp-Npg-B5-Asp-3COOHF-Ala-Ala-Phe-Leu-PyrS2-2C1F-BztA-Ser-NH2] |
| 10 (≈ 20 µg/mL) | CC(=O)N1CCC[C@]12CC=CCCCC1(CCCC=CCCCOC(=O)N3CC[C@@](C(=O)N[C@@H](Cc4ccsc4)C(=O)N[C@@H](Cc4csc5ccccc45)C(=O)N[C@@H](CCC(N)=O)C(=O)NC4CCCCC4)(C3)NC(=O)[C@H](CC(N)=O)NC(=O)[C@H](Cc3ccccc3)NC(=O)[C@H](C)NC(=O)[C@H](C)NC(=O)[C@H](CC(=O)O)NC(=O)[C@H](CC(=O)O)NC1=O)NC(=O)[C@H](CC(C)(C)C)NC(=O)[C@H](CC(=O)O)NC2=O (stereo partly drawn) [I-1374, PL3-Asp-Npg-B5-Asp-Asp-Ala-Ala-Phe-Asn-PyrS2-3Thi-BztA-Gln-NHCyHe] |
| 10 (≈ 20.2 µg/mL) | CC(=O)N1CCC[C@]12CC=CCCCC1(CCCC=CCCCOC(=O)N3CC[C@@](C(=O)N[C@@H](Cc4ccccc4Cl)C(=O)N[C@@H](Cc4csc5ccccc45)C(=O)N[C@H](CO)[C@@H](C)O)(C3)NC(=O)[C@H](Cc3ccccc3)NC(=O)[C@H](Cc3ccccc3)NC(=O)[C@H](C)NC(=O)[C@H](C)NC(=O)[C@H](Cc3cccc(C(=O)O)c3)NC(=O)[C@H](CC(=O)O)NC1=O)NC(=O)[C@H](CC(C)(C)C)NC(=O)[C@H](CC(=O)O)NC2=O (stereo partly drawn) [I-1340, PL3-Asp-Npg-B5-Asp-3COOHF-Ala-Ala-Phe-Phe-PyrS2-2C1F-BztA-Thro1] |

same assay, conditions: Solubility (uM)

| solubility at 15 min [µM] | SMILES |
| --- | --- |
| 13 (≈ 26.3 µg/mL) | CC(=O)N1CCC[C@]12CC=CCCCC1(CCCC=CCCCOC(=O)N3CC[C@@](C(=O)N[C@@H](Cc4ccccc4Cl)C(=O)N[C@@H](Cc4csc5ccccc45)C(=O)N[C@@H](CCC(N)=O)C(N)=O)(C3)NC(=O)[C@H](CC(C)C)NC(=O)[C@H](Cc3ccccc3)NC(=O)[C@H](C)NC(=O)[C@H](C)NC(=O)[C@H](Cc3cccc(C(=O)O)c3)NC(=O)[C@H](CC(=O)O)NC1=O)NC(=O)[C@H](CC(C)(C)C)NC(=O)[C@H](CC(=O)O)NC2=O (stereo partly drawn) [I-1332, PL3-Asp-Npg-B5-Asp-3COOHF-Ala-Ala-Phe-Leu-PyrS2-2C1F-BztA-Gln-NH2] |
| 37 (≈ 72.2 µg/mL) | CC(=O)N1CCC[C@]12CC=CCCCC1(CCCC=CCCCOC(=O)N3CC[C@@](C(=O)N[C@@H](Cc4cccs4)C(=O)N[C@@H](Cc4csc5ccccc45)C(=O)N[C@@H](CCC(N)=O)C(N)=O)(C3)NC(=O)[C@H](Cc3ccccc3)NC(=O)[C@H](Cc3ccccc3)NC(=O)[C@H](C)NC(=O)[C@H](C)NC(=O)[C@H](CC(=O)O)NC(=O)[C@H](CC(=O)O)NC1=O)NC(=O)[C@H](CC(C)(C)C)NC(=O)[C@H](CC(=O)O)NC2=O (stereo partly drawn) [I-1345, PL3-Asp-Npg-B5-Asp-Asp-Ala-Ala-Phe-Phe-PyrS2-2Thi-BztA-Gln-NH2] |
| 45 (≈ 86.3 µg/mL) | CC(=O)N1CCC[C@]12CC=CCCCC1(CCCC=CCCCOC(=O)N3CC[C@@](C(=O)N[C@@H](CC4CCCCC4)C(=O)N[C@@H](Cc4csc5ccccc45)C(=O)N[C@@H](CCC(N)=O)C(N)=O)(C3)NC(=O)[C@H](CC(N)=O)NC(=O)[C@H](Cc3ccccc3)NC(=O)[C@H](C)NC(=O)[C@H](C)NC(=O)[C@H](CC(=O)O)NC(=O)[C@H](CC(=O)O)NC1=O)NC(=O)[C@H](CC(C)(C)C)NC(=O)[C@H](CC(=O)O)NC2=O (stereo partly drawn) [I-1329, PL3-Asp-Npg-B5-Asp-Asp-Ala-Ala-Phe-Asn-PyrS2-Cha-BztA-Gln-NH2] |
| 14 (≈ 27.4 µg/mL) | CC(=O)N1CCC[C@]12CC=CCCCC1(CCCC=CCCCOC(=O)N3CC[C@@](C(=O)N[C@@H](CCc4ccccc4)C(=O)N[C@@H](Cc4csc5ccccc45)C(=O)N[C@@H](CCC(N)=O)C(N)=O)(C3)NC(=O)[C@H](Cc3ccccc3)NC(=O)[C@H](Cc3ccccc3)NC(=O)[C@H](C)NC(=O)[C@H](C)NC(=O)[C@H](CC(=O)O)NC(=O)[C@H](CC(=O)O)NC1=O)NC(=O)[C@H](CC(C)(C)C)NC(=O)[C@H](CC(=O)O)NC2=O (stereo partly drawn) [I-1351, PL3-Asp-Npg-B5-Asp-Asp-Ala-Ala-Phe-Phe-PyrS2-hPhe-BztA-Gln-NH2] |

| SMILES | solubility at 15 min [µM] |
| --- | --- |
| CC(=O)N1CCC[C@]12CC=CCCCC1(CCCC=CCCCOC(=O)N3CC[C@@](C(=O)N[C@@H](Cc4ccccc4C(F)(F)F)C(=O)N[C@@H](Cc4csc5ccccc45)C(=O)N[C@@H](CCC(N)=O)C(N)=O)(C3)NC(=O)[C@H](CC(C)C)NC(=O)[C@H](Cc3ccccc3)NC(=O)[C@H](C)NC(=O)[C@H](C)NC(=O)[C@H](Cc3cccc(C(=O)O)c3)NC(=O)[C@H](CC(=O)O)NC1=O)NC(=O)[C@H](CC(C)(C)C)NC(=O)[C@H](CC(=O)O)NC2=O (stereo partly drawn) [I-1335, PL3-Asp-Npg-B5-Asp-3COOHF-Ala-Ala-Phe-Leu-PyrS2-2F3MeF-BztA-Gln-NH2] | 11 (≈ 22.6 µg/mL) |
